What was measured:
J774.1a macrophage cells [1] = test: Macrophage TNF-α production (Assay 2); assay type: cell-based; conditions: 10 μg/mL test compound, 100 ng/mL LPS, ELISA; also: key: a ‘+’ indicates a positive result for desired activity; a ‘−’ indicates a negative result for desired activity
Description: Assay 2) Macrophage TNF-α production. J774.1a macrophage cells were treated with 10 μg/mL of test compound dissolved in solvent (e.g. cyclodextran) for 40 minutes prior to the addition of 100 ng/mL LPS. Culture supernatants were collected after 2 hr and 5 hr for TNF-α determination by ELISA.

J774.1a macrophage cells [2] = test: Macrophage TNF-α NO assay (Assay 3); assay type: cell-based; conditions: 10 μg/ml test compound, LPS, 24 hr, Griess reagent; also: key: a ‘+’ indicates a positive result for desired activity; a ‘−’ indicates a negative result for desired activity
Description: Assay 3) Macrophage TNF-α NO assay. J774.1a macrophage cells were treated with 10 μg/ml of test compound dissolved in solvent for 40 minutes prior to the addition of LPS. Culture supernatants were collected after 24 hr. for determination of NO concentration using the Griess reagent.

J774.1 macrophage cells = test: TNFα production in J774.1 macrophages (Example 9); assay type: cell-based; conditions: 2 ng/mL LPS
Description: J774.1 macrophage cells were plated at 2×10^5 cells/well in 24 well plates. The next day the media was changed and Compound 100, Compound 103 or cyclodextrin carrier were added to the wells at the indicated concentrations for 30 min prior to stimulation of the cells with 2 ng/mL lipopolysaccharide (LPS). LPS activation of macrophages leads to production of TNF alpha which can be detected in the culture supernatant and quantified by ELISA. The results are depicted in a graph in FIG. 1.

Mast cells = test: Stimulation of mast cells by FcεRI crosslinking (Assay 4); assay type: cell-based; conditions: anti-DNP IgE, DNP-HSA
Description: Assay 4) Stimulation of mast cells by FcåRI crosslinking. Mast cells were pre-loaded overnight in BMMC medium lacking IL-3 with 0.1 μg/ml anti-DNP IgE (SPE-7, Sigma, Oakville, Ont). For calcium flux measurements, cells were incubated with 2 μM fura 2-acetoxymethyl ester (Molecular Probes, Eugene, Oreg.) in Tyrode's buffer at 23° C. for 45 min. Cells were then washed and incubated in the presence of the test compound 30 min prior to stimulation with the indicated concentration of DNP-human serum albumin (DNP-HSA). Calcium influx was monitored by spectrofluorometry as described previously. For analysis of intracellular signaling, cells were pre-loaded with anti-DNP IgE as above, pre-treated with the test compound for 30 min at 37° C. and stimulated with 20 ng/ml DNP-HSA for 5 min. Total cell lysates were then prepared and analyzed for phospho-PKB, phospho-p38^MAPK, phospho-MAPK, Grb-2 (Cell Signalling, Mississauga, Ont) and SHIP^6 by immunoblot analysis.

[3] = tested on: Bone marrow derived mast cells; test: Calcium influx in mast cells (Example 11); assay type: cell-based; conditions: anti IgE antibody, Fura-2
Text: The activation of mast cells by IgE receptor crosslinking leads to an influx of calcium into the cells, followed by degranulation and secretion of pro-inflammatory mediator. Bone marrow derived mast cells were loaded with the fluorescent calcium indicator dye Fura-2 prior to treatment for 1 hr with Compound 106 or PBS carrier. Cells were then stimulated or not with an anti IgE antibody to cross-link the IgE receptors. Calcium influx was then monitored by fluorimetry. The results are depicted in a graph in FIG. 3.

MM cell lines = test: In vitro Multiple Myeloma (MM) assay (Assay 7); assay type: cell-based; also: key: a ‘+’ indicates a positive result for desired activity; a ‘−’ indicates a negative result for desired activity
Description: Assay 7) In vitro Multiple Myeloma (MM) assay. The ability of SHIP activators to reduce tumor cell survival was assessed in MM cell lines treated with the test compound. The lines OPM1, OPM2, MM.1S and RPMI 8226 were plated at a density of 1×10^5 cells/mL in 200 μL of medium with various concentrations of the test compound, and viable cell numbers were determined on day 3 and day 5 by trypan blue exclusion. The lines RPMI 8226 and U266 were plated at a density of 1×10^6 cells/mL in 250 μL of medium with various concentrations of the test compound. At day 4, the medium of each culture was replaced by fresh medium containing the same concentration of test compound. At day 7, the viable cell number of each culture was determined by trypan blue exclusion.
MM cell lines were cultured in 96 well plates seeded with 3×10^4 cells suspended in 200 μL of medium along with various concentrations of test compound (and associated cyclodextran vehicle control), with LY294002 serving as a positive control in the experiments. After 24-48 hrs of culture, […] of [3H]-thymidine (GE Healthcare, Baie D'Urfe, Canada) being added for the final 8 hours. Cells were harvested and DNA associated radioactivity was measured via liquid scintillation counting using a Wallac Microbeta counter (Perkin-Elmer; Boston, Mass.).
The ability of SHIP activators to reduce tumor cell survival was assessed in multiple myeloma (MM) cell lines treated with Compound 100 or AQX-016A. The lines OPM1, OPM2, MM.1S and RPMI 8226 were plated at a density of 1×10^5 cells/mL in 200 μL of medium with various concentrations of Compound 100, and viable cell numbers were determined on day 3 and day 5 by trypan blue exclusion. The lines RPMI 8226 and U266 were plated at a density of 1×10^6 cells/mL in 250 μL of medium with various concentrations of AQX-016A. At day 4, the medium of each culture was replaced by fresh medium containing the same concentration of AQX-016A. At day 7, the viable cell number of each culture was determined by trypan blue exclusion. Experiments were performed in triplicate.
Proliferation (DNA synthesis) assays. Proliferation was measured by measuring incorporation of [^3H]-thymidine into cells. MM cell lines were cultured in 96 well plates seeded with 3×10^4 cells suspended in 200 μL, of medium along with various concentrations of Compound 100 or AQX-016A (and associated cyclodextran vehicle control), with LY294002 serving as a positive control in the indicated experiments. After 24-48 hrs of culture, 1 μCi of [^3H]-thymidine (GE Healthcare, Baie D'Urfe, Canada) being added for the final 8 hours. Plates were frozen, which also aided in cell lysis, to terminate the experiments. Cells were then harvested onto glass fibre filters using an automatic cell harvester (TomTech; Orange, Conn.) and DNA associated radioactivity was measured via liquid scintillation counting using a Wallac Microbeta counter (Perkin-Elmer; Boston, Mass.). Wells were set up in triplicate and data is expressed as mean+/−SEM.

SHIP enzyme = test: In vitro SHIP enzyme assay (Assay 1); assay type: biochemical; conditions: wild-type SHIP
Description: Assay 1) In vitro testing in a SHIP enzyme assay. Test compounds were dissolved in a suitable solvent (e.g. EtOH, DMSO and others) and diluted into aqueous buffer (20 mM Tris HCl, pH 7.5 and 10 mM MgCl2). SHIP enzyme assays were performed in 96-well microtitre plates with 10 ng of enzyme/well in a total volume of 25 μL of 20 mM Tris HCl, pH 7.5 and 10 mM MgCl2. SHIP enzyme was incubated with test extracts (provided in solvent) or vehicle for 15 min at 23° C. before the addition of 100 μM inositol-1,3,4,5-tetrakisphosphate (Echelon Biosciences Inc, Salt Lake City, Utah). After 20 min at 37° C. and the amount of inorganic phosphate released assessed by the addition of Malachite Green reagent and absorbance measurement at 650 nm.
For in vitro testing in the SHIP enzyme assay, AQX-016A and Compound 100 were dissolved in EtOH and diluted into aqueous buffer (20 mM Tris HCl, pH 7.5 and 10 mM MgCl2). The actual concentration of drug in solution was determined by optical density measurement at 280 nm (λmax for both compounds) after high speed centrifugation at 14 000×g for 30 min to remove precipitated drug. For testing on cells, compounds were formulated in the carrier cyclodextrin (Cyclodex Technologies, High Springs, Fla.) at 6 mM (2 mg/mL). For oral administration to animals, compounds were dissolved in 100% cremophore EL (Sigma-Aldrich Canada, Oakville, Ontario) at 150 mM (50 mg/mL) prior to dilution to 6 mM in phosphate buffer saline. However, while these compounds caged in cyclodextrin or formulated in cremophore EL micelles were very soluble in aqueous solution, they could not be used in the SHIP enzyme assays because of interference from both cyclodextrin and cremophore EL.
N-terminal His6 tagged SHIP enzyme was expressed in mammalian 293T cells by transient transfection with pME18S-His-SHIP plasmid and purified to >95% homogeneity by Ni-chelating bead chromatography (Qiagen, Mississauga, Ontario). Recombinant SHIP C2 domain (amino acid residues 725 to 863) was expressed in E. coli transformed with a pET28C expression vector constructed as described below. Recombinant protein purified from the cell lysates by Nichelating bead chromatography was >95% pure.
In vitro SHIP enzyme assay. SHIP enzyme assays were performed in 96-well microtitre plates with 10 ng of enzyme/well in a total volume of 25 μL of 20 mM Tris HCl, pH 7.5 and 10 Mm MgCl2. SHIP enzyme was incubated with test extracts (provided in DMSO) or vehicle for 15 min at 23° C. before the addition of 100 μM inositol-1,3,4,5-tetrakisphosphate (Echelon Biosciences Inc, Salt Lake City, Utah). After 20 min at 37° C. and the amount of inorganic phosphate released assessed by the addition of Malachite Green reagent and absorbance measurement at 650 nm. SHIP2 enzyme was purchased from Echelon Biosciences (Salt Lake City, Utah) and an equivalent amount of inositol phosphatase activity was used in the in vitro enzyme assay. Enzyme data are expressed as the mean of triplicates +/−SEM. Experiments were performed at least 3 times. (FIGS. 7A and 7B).

ΔC2 SHIP = test: SHIP enzyme assay with C2 domain deleted SHIP; assay type: biochemical; conditions: PI-3,4-P2 20 μM or Compound 100 3 μM, 30 μM IP4
Text: A His6 tagged SHIP ΔC2 domain deletion mutant (deleting residues 725 to 863) in the mammalian expression vector pME18S was generated by a standard PCR-based methodology. An N-terminal His6 C2 domain construct was also generated by PCR inserted into the pET28C bacterial expression vector using EcoRI and NdeI restriction sites.
The allosteric regulation of enzymes has remained under-appreciated primarily because allosteric effectors are not easy to find. The molecular mechanism by which Compound 100 activated SHIP was investigated, first by performing classical enzyme kinetic analysis of its phosphatase activity. Activity measurements were performed with substrate concentrations from 10-100 μM.
The SHIP protein contains a C2 domain located at the carboxyterminal end of its phosphatase domain. […] SHIP lacking its the C2 domain (ΔC2 SHIP) was prepared.

SMILES | Assay Number 2: Macrophage TNF-α production (J774.1a macrophage cells [1]) | Assay Number 3: Macrophage NO (J774.1a macrophage cells [2]) | inhibition of TNFα production (J774.1 macrophage cells) | Assay Number 4: Stimulation of mast cells by FcεRI crosslinking (Mast cells) | inhibition of calcium influx [3] | Assay Number 7: In vitro Multiple Myeloma (MM) assay (MM cell lines) | SHIP enzyme activity (SHIP enzyme) | ΔC2 SHIP enzyme activity (ΔC2 SHIP)
Cc1cc(OC(=O)CN)cc2c1[C@]1(C)CCC3C(C)(C)CCC[C@]3(C)[C@H]1C2 (stereo partly shown) [Compound 103] | + | + | Inhibits TNF Alpha Production Better than Compound 100 |  |  |  |  | 
Cc1cc(OC(=O)C(N)CCCCN)cc2c1[C@]1(C)CCC3C(C)(C)CCC[C@]3(C)[C@H]1C2 (stereo partly shown) [Compound 106] | + | + |  | + | Inhibits Calcium Influx in Mast Cells |  |  | 
Cc1cc(O)cc2c1[C@@]1(C)CCC3C(C)(C)CCC[C@]3(C)[C@H]1C2 (stereo partly shown) [Compound 125] | + | + |  | + |  | + |  | 
CCCCCCCCCCCCCCCC(=O)OC[C@H](COP(=O)(O)O[C@H]1[C@H](O)[C@@H](O)[C@H](OP(=O)(O)O)[C@@H](OP(=O)(O)O)[C@H]1O)OC(=O)CCCCCCCCCCCCCCC [PI-3,4-P2, phosphatidylinositol-3,4-bisphosphate diC16, reference compound] |  |  |  |  |  |  | activated wild-type SHIP enzyme to a similar extent as Compound 100 | could not be enhanced

Reference: patent US20110263539A1, “SHIP 1 MODULATOR COMPOUNDS” (THE UNIVERSITY OF BRITISH COLUMBIA, priority 2006, published 2011)
